Structures are written as SMILES.

The target in this experiment is T1, human KCNK13 (Homo sapiens, UniProt Q9HB14).
T1 construct: expressed in transfected cells
T1 sequence (Q9HB14 1-408): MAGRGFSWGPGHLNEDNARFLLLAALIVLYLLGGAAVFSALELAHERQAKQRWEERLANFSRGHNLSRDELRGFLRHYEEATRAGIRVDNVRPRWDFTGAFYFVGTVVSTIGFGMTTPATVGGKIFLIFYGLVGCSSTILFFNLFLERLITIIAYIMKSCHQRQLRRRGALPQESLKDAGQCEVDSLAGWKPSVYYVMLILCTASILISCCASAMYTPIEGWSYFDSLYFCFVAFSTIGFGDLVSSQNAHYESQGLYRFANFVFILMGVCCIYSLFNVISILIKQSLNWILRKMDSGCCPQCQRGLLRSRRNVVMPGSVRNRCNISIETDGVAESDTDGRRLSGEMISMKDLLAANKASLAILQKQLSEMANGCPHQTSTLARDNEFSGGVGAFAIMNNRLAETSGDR
The experiment is described as follows: KCNK13 antagonist activity, thallium (Tl+) flux FLIPR assay. Conditions: HEK 293 cells stably expressing human KCNK13; Tl+ sensitive dye, FLIPR; compounds 15 minutes prior to thallium sulfate; 10 point half log curves from 10 PM; read-out: hKCNK13 IC50. It is filed as cell-based. Here is the method:
KCNK13 antagonist activity was determined by measuring changes in intracellular Thallium (Tl^+) concentrations using a Tl^+ sensitive fluorescent dye. The changes in fluorescent signal were monitored by Fluorescent Imaging Plate Reader (FLIPR™) technology available from Molecular Devices, LLC, US. KCNK13 mediated increases in intracellular Tl+concentration were readily detected by addition of a thallium sulfate stimulus. 24 hours prior to the assay, human embryonic kidney 293 cells (HEK 293 cells) stably expressing human KCNK13 were seeded in cell culture medium in PDL coated black, clear-bottom 384-well plates (commercially available from Corning Inc., 356663) and grown overnight at 37° C., 5% CO2. On the day of the assay, cell culture media was removed and cells were loaded with potassium dye (commercially sold by Molecular Devices, LLC, US, R8222) for 1 hour at room temperature in the dark. Test compounds (at 10 point half log concentration response curves from […]) were added to cells for 15 minutes prior to the addition of thallium sulfate to all wells. The IC50 values were determined from ten point concentration response curves. Curves were generated using the average of two wells for each data point.
For `COc1ccc(Cn2c(-c3nonc3N)nc3c(F)cccc32)nn1` (single isomer, unassigned) [Example 153, 4-(4-fluoro-1-((6-methoxypyridazin-3-yl)methyl)-benzimidazol-2-yl)-1,2,5-oxadiazol-3-amine], the IC50 is below 200 nM.
The value for `Nc1nsnc1-c1nc2cccc(F)c2n1Cc1cccnn1` (single isomer, unassigned) [Example 156, 4-(7-fluoro-1-(pyridazin-3-ylmethyl)-benzimidazol-2-yl)-1,2,5-thiadiazol-3-amine] was below 50 nM; that for `Nc1nsnc1-c1nc2c(F)cccc2n1Cc1cccnn1` (single isomer, unassigned) [Example 157, 4-(4-fluoro-1-(pyridazin-3-ylmethyl)-benzimidazol-2-yl)-1,2,5-thiadiazol-3-amine] was below 200 nM.
The value for `Nc1nonc1-c1nc2ccc(F)c(F)c2n1Cc1cccnn1` (single isomer, unassigned) [Example 162, 4-(6,7-difluoro-1-(pyridazin-3-ylmethyl)-benzimidazol-2-yl)-1,2,5-oxadiazol-3-amine] was below 50 nM.
The value for `Nc1nonc1-c1nc2c(F)c(F)ccc2n1Cc1cccnn1` (single isomer, unassigned) [Example 163, 4-(4,5-difluoro-1-(pyridazin-3-ylmethyl)-benzimidazol-2-yl)-1,2,5-oxadiazol-3-amine] was below 200 nM; that for `Nc1nonc1-c1nc2cccc(F)c2n1Cc1ccc(C(F)(F)F)nn1` (single isomer, unassigned) [Example 166, 4-(7-fluoro-1-((6-(trifluoromethyl)pyridazin-3-yl)methyl)-benzimidazol-2-yl)-1,2,5-oxadiazol-3-amine] was below 100 nM; that for `Nc1nonc1-c1nc2c(F)cccc2n1Cc1ccc(C(F)(F)F)nn1` (single isomer, unassigned) [Example 167, 4-(4-fluoro-1-((6-(trifluoromethyl)pyridazin-3-yl)methyl)-benzimidazol-2-yl)-1,2,5-oxadiazol-3-amine] was below 1000 nM.
On to `Cc1ccc(Cn2c(-c3nonc3N)nc3cccc(F)c32)nn1` (single isomer, unassigned) [Example 168, 4-(7-fluoro-1-((6-methylpyridazin-3-yl)methyl)-benzimidazol-2-yl)-1,2,5-oxadiazol-3-amine], for which the IC50 was below 50 nM.
Then `Cc1ccc(Cn2c(-c3nonc3N)nc3c(F)cccc32)nn1` (single isomer, unassigned) [Example 169, 4-(4-fluoro-1-((6-methylpyridazin-3-yl)methyl)-benzimidazol-2-yl)-1,2,5-oxadiazol-3-amine], with below 200 nM; and `Cc1nonc1-c1nc2ccc(F)c(F)c2n1Cc1cccnn1` (single isomer, unassigned) [Example 170, 3-(6,7-difluoro-1-(pyridazin-3-ylmethyl)-benzimidazol-2-yl)-4-methyl-1,2,5-oxadiazole], with below 100 nM; and `Cc1nonc1-c1nc2c(F)c(F)ccc2n1Cc1cccnn1` (single isomer, unassigned) [Example 171, 3-(4,5-difluoro-1-(pyridazin-3-ylmethyl)-benzimidazol-2-yl)-4-methyl-1,2,5-oxadiazole], with below 500 nM.
As to `Nc1nonc1-c1nc2cccc(F)c2n1Cc1ccc(C(F)F)nn1` (single isomer, unassigned) [Example 172, 4-(1-((6-(difluoromethyl)pyridazin-3-yl)methyl)-7-fluoro-benzimidazol-2-yl)-1,2,5-oxadiazol-3-amine], the IC50 was below 200 nM.
The value for `Nc1nonc1-c1nc2c(F)cccc2n1Cc1ccc(C(F)F)nn1` (single isomer, unassigned) [Example 173, 4-(1-((6-(difluoromethyl)pyridazin-3-yl)methyl)-4-fluoro-benzimidazol-2-yl)-1,2,5-oxadiazol-3-amine] was below 500 nM; that for `N#Cc1ccc(Cn2c(-c3nonc3N)nc3cccc(F)c32)nn1` (single isomer, unassigned) [Example 174, 6-((2-(4-amino-1,2,5-oxadiazol-3-yl)-7-fluoro-benzimidazol-1-yl)methyl)pyridazine-3-carbonitrile] was below 100 nM; that for `N#Cc1ccc(Cn2c(-c3nonc3N)nc3c(F)cccc32)nn1` (single isomer, unassigned) [Example 175, 6-((2-(4-amino-1,2,5-oxadiazol-3-yl)-4-fluoro-benzimidazol-1-yl)methyl)pyridazine-3-carbonitrile] was below 200 nM.
Turning to `COc1cc(Cn2c(-c3nonc3N)nc3cccc(F)c32)ccn1` (single isomer, unassigned) [Example 183, 4-(7-fluoro-1-((2-methoxypyridin-4-yl)methyl)-benzimidazol-2-yl)-1,2,5-oxadiazol-3-amine], the IC50 was below 100 nM.
The value for `COc1cc(Cn2c(-c3nonc3N)nc3c(F)cccc32)ccn1` (single isomer, unassigned) [Example 184, 4-(4-fluoro-1-((2-methoxypyridin-4-yl)methyl)-benzimidazol-2-yl)-1,2,5-oxadiazol-3-amine] was below 100 nM.
Then `Nc1nonc1-c1nc2cncc(F)c2n1Cc1cccnn1` (single isomer, unassigned) [Example 187, 4-(7-fluoro-1-(pyridazin-3-ylmethyl)-1H-imidazo[4,5-c]pyridin-2-yl)-1,2,5-oxadiazol-3-amine], with below 500 nM; and `Nc1nonc1-c1nc2c(F)cncc2n1Cc1cccnn1` (single isomer, unassigned) [Example 188, 4-(7-fluoro-3-(pyridazin-3-ylmethyl)-3H-imidazo[4,5-c]pyridin-2-yl)-1,2,5-oxadiazol-3-amine], with below 5000 nM; and `Cc1nonc1-c1nc2ccc(F)c(F)c2n1Cc1cnc(C#N)nc1` [Example 1, 5-[[6,7-difluoro-2-(4-methyl-1,2,5-oxadiazol-3-yl)benzimidazol-1-yl]methyl]pyrimidine-2-carbonitrile], with below 100 nM.
For `N#Cc1ncc(Cn2c(-c3nonc3N)nc3ccc(F)c(F)c32)cn1` [Example 2, 5-[[2-(4-amino-1,2,5-oxadiazol-3-yl)-6,7-difluoro-benzimidazol-1-yl]methyl]pyrimidine-2-carbonitrile], the IC50 was below 50 nM.
Then `Nc1nonc1-c1nc2cccc(F)c2n1Cc1cncnc1` [Example 3, 4-[7-fluoro-1-(pyrimidin-5-ylmethyl)benzimidazol-2-yl]-1,2,5-oxadiazol-3-amine], with below 50 nM; and `Nc1nonc1-c1nc2cccc(F)c2n1Cc1cccnn1` [Example 6, 4-[7-fluoro-1-(pyridazin-3-ylmethyl)benzimidazol-2-yl]-1,2,5-oxadiazol-3-amine], with below 100 nM.
The value for `Cc1nonc1-c1nc2ccc(F)c(F)c2n1Cc1cncnc1` [Example 7, 3-[6,7-difluoro-1-(pyrimidin-5-ylmethyl)benzimidazol-2-yl]-4-methyl-1,2,5-oxadiazole] was below 100 nM; that for `N#Cc1ccc(Cn2c(-c3nonc3N)nc3c(F)cccc32)cn1` [Example 8, 5-[[2-(4-amino-1,2,5-oxadiazol-3-yl)-4-fluoro-benzimidazol-1-yl]methyl]pyridine-2-carbonitrile] was below 100 nM.
Then `Cc1nonc1-c1nc2c(F)cccc2n1Cc1cncnc1` [Example 9, 3-[4-fluoro-1-(pyrimidin-5-ylmethyl)benzimidazol-2-yl]-4-methyl-1,2,5-oxadiazole], with below 100 nM.
For the compound `COc1ccc(Cn2c(-c3nonc3N)nc3cccc(F)c32)cn1` [Example 10, 4-[7-fluoro-1-[(6-methoxypyridin-3-yl)methyl]benzimidazol-2-yl]-1,2,5-oxadiazol-3-amine], the IC50 is below 100 nM.
The value for `N#Cc1ncc(Cn2c(-c3nonc3N)nc3cccnc32)cn1` [Example 11, 5-[[2-(4-amino-1,2,5-oxadiazol-3-yl)imidazo[4,5-b]pyridin-3-yl]methyl]pyrimidine-2-carbonitrile] was below 200 nM; that for `Nc1nonc1-c1nc2cc(F)cnc2n1Cc1cncnc1` [Example 12, 4-[6-fluoro-3-(pyrimidin-5-ylmethyl)imidazo[4,5-b]pyridin-2-yl]-1,2,5-oxadiazol-3-amine] was below 200 nM.
As for `Cc1nonc1-c1nc2cccnc2n1Cc1cncnc1` [Example 13, 3-methyl-4-[3-(pyrimidin-5-ylmethyl)imidazo[4,5-b]pyridin-2-yl]-1,2,5-oxadiazole], the IC50 is below 200 nM.
On to `COc1ccc(Cn2c(-c3nonc3N)nc3cccnc32)cn1` [Example 14, 4-[3-[(6-methoxypyridin-3-yl)methyl]imidazo[4,5-b]pyridin-2-yl]-1,2,5-oxadiazol-3-amine], for which the IC50 was below 200 nM.

The record behind these values is patent publication US20240158385A1, “NOVEL COMPOUNDS” (Cerevance, Inc., priority 2021, published 2024).
